Laboratory results published in ChEMBL document CHEMBL5226390, “Synthesis and Structure-Activity Analysis of Icaritin Derivatives as Potential Tumor Growth Inhibitors of Hepatocellular Carcinoma Cells” (J Nat Prod, 2023).

Tests used:
[1] = test system: HepG2; assay: Antiproliferative activity against human HepG2 cells assessed as reduction in cell viability incubated for 48 hrs by MTT assay; assay type: functional, cell-based; conditions: HepG2, 48 h
[2] = test system: Hep 3B2; assay: Antiproliferative activity against human Hep3B cells assessed as reduction in cell viability incubated for 48 hrs by MTT assay; assay type: functional, cell-based
[3] = test system: SMMC-7721; assay: Antiproliferative activity against human SMMC-7721 cells assessed as reduction in cell viability incubated for 48 hrs by MTT assay; assay type: functional, cell-based
[4] = Solubility of the compound in water incubated for 24 hrs under stirring conditions by HPLC analysis; assay type: physicochemical
[5] = Homo sapiens, SMMC-7721, 48 h, read-out: IC50

With `COc1ccc(-c2oc3c(CC=C(C)C)c(O)cc(O)c3c(=O)c2O)cc1` [ICARITIN] the IC50 [1] was > 10 µM, the IC50 [2] was 0.9 µM and the IC50 [3, 5] was > 10 µM. For the same compound, the solubility at 24 h [4] was < 10 µg/mL.
In the case of `COc1ccc(-c2oc3c(CC=C(C)C)c(OCCN(C)C)cc(O)c3c(=O)c2O[C@H]2O[C@H](C)[C@@H](O)[C@H](O)[C@@H]2O)cc1`, the IC50 [1] is reported as 9.2 µM, the IC50 [2] is reported as > 10 µM and the IC50 ([3]; smmc-7721) is reported as “Not Active”.
In the case of `COc1ccc(-c2oc3c(CC=C(C)C)c(OCCOCCOCCN4CCCC4)cc(O)c3c(=O)c2O[C@H]2O[C@H](C)[C@@H](O)[C@H](O)[C@@H]2O)cc1`, the IC50 [1] is reported as > 10 µM, the IC50 [2] is reported as > 10 µM and the IC50 [3, 5] is reported as > 10 µM.
